Results on nine molecules are retold here after PubChem BioAssay (NCI).

SMILES strings stand for the structures.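 In this assay, cells in 96-well plates receive the compound at five concentrations for 48 hours. Endpoints are linearly interpolated between the surrounding concentrations. Abbreviation: GI50, concentration required for 50% inhibition of growth. TGI: concentration producing complete growth inhibition.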

Among the test systems are CAKI-1 renal; NCI-H460 lung; SF-539 CNS; MOLT-4 leukemia; CCRF-CEM leukemia; SK-MEL-5 melanoma; OVCAR-4 ovarian; NCI-H23 lung; LOX IMVI melanoma; U251 CNS.
Holding throughout (test): NCI-60 cell line screen, 48 h

As to `OC(COc1ccccc1)CN1CCCCC1` (stereo not drawn), the TGI in the assay with CAKI-1 renal, with NCI-H460 lung, in the assay on SF-539 CNS, in the assay with MOLT-4 leukemia, in the assay with CCRF-CEM leukemia and with SK-MEL-5 melanoma was greater than 100 µM in each case. The TGI in the assay with OVCAR-4 ovarian, in the assay with NCI-H23 lung, in the assay on LOX IMVI melanoma and in the assay on U251 CNS was greater than 100 µM throughout.
As to `NCCOc1ncccc1/C=C1\c2ccccc2-c2ccc([N+](=O)[O-])cc21`, the GI50 in the assay with CAKI-1 renal is 0.0283 µM; with NCI-H460 lung, less than 0.0104 µM; with SF-539 CNS it was 0.135 µM; in the assay with MOLT-4 leukemia it was less than 0.01 µM; in the assay on CCRF-CEM leukemia, 0.0181 µM; in the assay with SK-MEL-5 melanoma, 0.101 µM. In addition, the GI50 in the assay with OVCAR-4 ovarian is 0.194 µM; with NCI-H23 lung, 0.0479 µM; in the assay with LOX IMVI melanoma, 0.0243 µM; with U251 CNS, 0.0269 µM. Also, the TGI with CAKI-1 renal came to 0.231 µM; in the assay with NCI-H460 lung, 0.154 µM; in the assay with SF-539 CNS, 0.362 µM; with MOLT-4 leukemia it was 0.0746 µM; in the assay on CCRF-CEM leukemia it was 0.0973 µM; with SK-MEL-5 melanoma, 0.253 µM. Besides, the TGI was determined as 0.827 µM with OVCAR-4 ovarian, 0.413 µM with NCI-H23 lung, 0.163 µM with LOX IMVI melanoma and 0.303 µM in the assay with U251 CNS.
`Cc1noc(C)c1-c1cnc2c(-c3ccc(C(=O)O)cc3)cn([C@@H](C)c3ccccn3)c2c1`: the GI50 in the assay with CAKI-1 renal was 0.0745 µM; in the assay on NCI-H460 lung it was 6.07 µM; in the assay on SF-539 CNS it was 0.842 µM; in the assay with MOLT-4 leukemia, 12.6 µM; with CCRF-CEM leukemia, 2.73 µM; with SK-MEL-5 melanoma, 0.644 µM. Moreover, the GI50 in the assay with OVCAR-4 ovarian was 0.772 µM; in the assay on NCI-H23 lung it was 3.32 µM; in the assay on LOX IMVI melanoma, 0.315 µM; with U251 CNS, 3.38 µM. Further, the TGI with CAKI-1 renal is greater than 83.6 µM; in the assay with NCI-H460 lung it was greater than 100 µM; in the assay on SF-539 CNS, greater than 100 µM; with MOLT-4 leukemia, greater than 100 µM; in the assay on CCRF-CEM leukemia, greater than 100 µM; with SK-MEL-5 melanoma, 4.07 µM. The TGI is greater than 100 µM in the assay on OVCAR-4 ovarian, greater than 100 µM in the assay with NCI-H23 lung, 7.73 µM in the assay on LOX IMVI melanoma and greater than 100 µM in the assay with U251 CNS.
Consider `COc1ccc2c(c1)O/C(=C\c1cccc(OCC(=O)Nc3nc(C)c(C)s3)c1)C2=O`, for which the GI50 in the assay with CAKI-1 renal is 1.06 µM; in the assay on NCI-H460 lung, 11.6 µM; with SF-539 CNS it was 1.59 µM; with MOLT-4 leukemia, 3.38 µM; with CCRF-CEM leukemia, 0.312 µM; with SK-MEL-5 melanoma, 2 µM. The GI50 was 12.8 µM in the assay with OVCAR-4 ovarian, 1.19 µM in the assay on NCI-H23 lung, 0.189 µM in the assay with LOX IMVI melanoma and 1.62 µM in the assay with U251 CNS. Further, the TGI in the assay on NCI-H460 lung is greater than 100 µM; with SF-539 CNS, 2.98 µM; in the assay with MOLT-4 leukemia it was greater than 22.5 µM; with CCRF-CEM leukemia it was 3.07 µM; in the assay on SK-MEL-5 melanoma it was greater than 100 µM; with OVCAR-4 ovarian, greater than 100 µM. Besides, the TGI was 0.351 µM in the assay on LOX IMVI melanoma and 3.08 µM in the assay with U251 CNS.
Consider `COC(=O)CCC(=O)N1CC1C` (stereo not drawn), for which the TGI in the assay on CAKI-1 renal, in the assay on NCI-H460 lung, in the assay with SF-539 CNS, in the assay on MOLT-4 leukemia, in the assay with CCRF-CEM leukemia and in the assay on SK-MEL-5 melanoma was greater than 100 µM throughout. In addition, the TGI in the assay with OVCAR-4 ovarian, in the assay with NCI-H23 lung, in the assay with LOX IMVI melanoma and with U251 CNS was greater than 100 µM throughout.
Consider `CC(=O)O[C@H](C[C@H](C(C)C)N(C)C(=O)[C@@H](NC(=O)[C@H]1CCCCN1C)C(C)C)c1cccc(C(=O)N[C@@H](Cc2ccccc2)C[C@H](C)C(=O)O)n1`, for which the GI50 is 0.0686 µM in the assay on CAKI-1 renal; 0.0297 µM in the assay on NCI-H460 lung; 0.0193 µM in the assay on SF-539 CNS; 0.0219 µM in the assay with MOLT-4 leukemia; 0.0175 µM in the assay on CCRF-CEM leukemia; 0.0155 µM in the assay on SK-MEL-5 melanoma. Besides, the GI50 with OVCAR-4 ovarian was 0.107 µM; in the assay on NCI-H23 lung, 0.051 µM; in the assay on LOX IMVI melanoma, 0.0255 µM; in the assay on U251 CNS it was 0.0353 µM. In addition, the TGI was greater than 25 µM in the assay with CAKI-1 renal; greater than 13.4 µM in the assay on NCI-H460 lung; 0.0626 µM with SF-539 CNS; greater than 25 µM in the assay with MOLT-4 leukemia; greater than 25 µM in the assay on CCRF-CEM leukemia; 0.36 µM with SK-MEL-5 melanoma. Besides, the TGI in the assay on OVCAR-4 ovarian, in the assay with NCI-H23 lung, in the assay with LOX IMVI melanoma and in the assay on U251 CNS was greater than 25 µM throughout.
Take `COc1ccc2c(c1)[n+](=O)c(C(=O)CC(=O)C(=O)Nc1cccc(C)c1C)c(C)n2[O-]`: the TGI in the assay on CAKI-1 renal, in the assay with NCI-H460 lung, in the assay with SF-539 CNS, with MOLT-4 leukemia, in the assay with CCRF-CEM leukemia and in the assay on SK-MEL-5 melanoma was greater than 100 µM each time. In addition, the TGI in the assay with OVCAR-4 ovarian, with NCI-H23 lung, in the assay on LOX IMVI melanoma and with U251 CNS was greater than 100 µM each time.
Turning to `Cc1ccc(C2C(Cl)C(=O)N2NC(=O)c2ccc(N)cc2)cc1` (stereo not drawn), the TGI in the assay on CAKI-1 renal was 38.3 µM; in the assay on NCI-H460 lung, 35.5 µM; with SF-539 CNS it was 41.6 µM; in the assay on MOLT-4 leukemia, 35.3 µM; in the assay on CCRF-CEM leukemia it was 39.2 µM; in the assay on SK-MEL-5 melanoma it was 29.7 µM. The TGI with OVCAR-4 ovarian is greater than 100 µM; in the assay with NCI-H23 lung it was 38.3 µM; in the assay with LOX IMVI melanoma, 24.4 µM; in the assay on U251 CNS, 28.3 µM.
In the case of `COc1cc(-c2cc3ncccc3c3[nH]c(=O)c4cccnc4c23)cc(OC)c1OC`, the GI50 in the assay on CAKI-1 renal was 0.663 µM; in the assay on NCI-H460 lung it was 0.433 µM; with SF-539 CNS it was 0.488 µM; in the assay on MOLT-4 leukemia, 0.782 µM; in the assay on CCRF-CEM leukemia it was 0.623 µM; in the assay with SK-MEL-5 melanoma, 0.51 µM. The GI50 with OVCAR-4 ovarian is 8.87 µM; in the assay with NCI-H23 lung it was 2.3 µM; in the assay on LOX IMVI melanoma, 0.511 µM; in the assay on U251 CNS, 0.603 µM. Moreover, the TGI in the assay on CAKI-1 renal was greater than 100 µM; in the assay with NCI-H460 lung, greater than 100 µM; with SF-539 CNS, 5.84 µM; with MOLT-4 leukemia, 28.8 µM; in the assay with CCRF-CEM leukemia, greater than 100 µM; with SK-MEL-5 melanoma it was 3.17 µM. Also, the TGI with OVCAR-4 ovarian, in the assay on NCI-H23 lung, with LOX IMVI melanoma and in the assay on U251 CNS was greater than 100 µM each time.
